The record followed here is ChEMBL document CHEMBL1141767, “Lignans from bark of Larix olgensis var. koreana” (J Nat Prod, 2005).

The term IC50 denotes the concentration at which inhibition is half-maximal. Lower therefore signals greater potency in that assay.

In brackets after ≈: the same amount, converted by molar mass.

Type in all cases: functional, cell-based
One experiment concerns K562. In words: Cytotoxicity against human K562 cells after 72 hrs by MTT assay. The note with it: K562, 72 h. A general note: Tetrazolium assays rely on reduction of a dye to a coloured formazan, in cell work by metabolically active cells.
Experiment [1] can be described thus: Cytotoxicity against human SGH44 cells after 72 hrs by MTT assay. The note with it: SGH44, 72 h.
The subject of another experiment is HCT-8. In words: Cytotoxicity against human HCT8 cells after 72 hrs by MTT assay. As to conditions: HCT-8, 72 h.
For another experiment, the system named is A549. The experiment in a line: Cytotoxicity against human A549 cells after 72 hrs by MTT assay. As to conditions: A549, 72 h.
Experiment [2] is described as follows: Cytotoxicity against human PC3M cells after 72 hrs by MTT assay. The note with it: PC-3M.

For the compound `COc1cc(C[C@@H]2CO[C@@H](c3ccc(O)c(OC)c3)[C@@H]2COC(=O)/C=C/c2ccc(O)cc2)ccc1O`, the half-inhibitory concentration (IC50) was found to be 2.9 µg/mL (≈ 5.72 µM) in the experiment with K562; 21.4 µg/mL (≈ 42.2 µM) in experiment [1]; 32.9 µg/mL (≈ 64.9 µM) with HCT-8; 33.8 µg/mL (≈ 66.7 µM) in the experiment with A549; 28 µg/mL (≈ 55.3 µM) in experiment [2].
